Measured values reported in patent US5880119A, “Mercaptoacetylamino 1,3,4,5-tetrahydro-benzo(C)azepin-2-one disulfide derivatives useful as inhibitors of enkephalinase and ACE” (Merrell Pharmaceuticals Inc., priority 1997, dated 1999).

Biological target: T1, ACE (Angiotensin-Converting Enzyme) of rat kidney preparations (Rattus norvegicus, UniProt P47820)
T1 construct: compound- or vehicle-dosed rat kidney preparations; from tissue; host or cells: kidney of male Sprague-Dawley rats
T1 sequence (P47820 36-1313): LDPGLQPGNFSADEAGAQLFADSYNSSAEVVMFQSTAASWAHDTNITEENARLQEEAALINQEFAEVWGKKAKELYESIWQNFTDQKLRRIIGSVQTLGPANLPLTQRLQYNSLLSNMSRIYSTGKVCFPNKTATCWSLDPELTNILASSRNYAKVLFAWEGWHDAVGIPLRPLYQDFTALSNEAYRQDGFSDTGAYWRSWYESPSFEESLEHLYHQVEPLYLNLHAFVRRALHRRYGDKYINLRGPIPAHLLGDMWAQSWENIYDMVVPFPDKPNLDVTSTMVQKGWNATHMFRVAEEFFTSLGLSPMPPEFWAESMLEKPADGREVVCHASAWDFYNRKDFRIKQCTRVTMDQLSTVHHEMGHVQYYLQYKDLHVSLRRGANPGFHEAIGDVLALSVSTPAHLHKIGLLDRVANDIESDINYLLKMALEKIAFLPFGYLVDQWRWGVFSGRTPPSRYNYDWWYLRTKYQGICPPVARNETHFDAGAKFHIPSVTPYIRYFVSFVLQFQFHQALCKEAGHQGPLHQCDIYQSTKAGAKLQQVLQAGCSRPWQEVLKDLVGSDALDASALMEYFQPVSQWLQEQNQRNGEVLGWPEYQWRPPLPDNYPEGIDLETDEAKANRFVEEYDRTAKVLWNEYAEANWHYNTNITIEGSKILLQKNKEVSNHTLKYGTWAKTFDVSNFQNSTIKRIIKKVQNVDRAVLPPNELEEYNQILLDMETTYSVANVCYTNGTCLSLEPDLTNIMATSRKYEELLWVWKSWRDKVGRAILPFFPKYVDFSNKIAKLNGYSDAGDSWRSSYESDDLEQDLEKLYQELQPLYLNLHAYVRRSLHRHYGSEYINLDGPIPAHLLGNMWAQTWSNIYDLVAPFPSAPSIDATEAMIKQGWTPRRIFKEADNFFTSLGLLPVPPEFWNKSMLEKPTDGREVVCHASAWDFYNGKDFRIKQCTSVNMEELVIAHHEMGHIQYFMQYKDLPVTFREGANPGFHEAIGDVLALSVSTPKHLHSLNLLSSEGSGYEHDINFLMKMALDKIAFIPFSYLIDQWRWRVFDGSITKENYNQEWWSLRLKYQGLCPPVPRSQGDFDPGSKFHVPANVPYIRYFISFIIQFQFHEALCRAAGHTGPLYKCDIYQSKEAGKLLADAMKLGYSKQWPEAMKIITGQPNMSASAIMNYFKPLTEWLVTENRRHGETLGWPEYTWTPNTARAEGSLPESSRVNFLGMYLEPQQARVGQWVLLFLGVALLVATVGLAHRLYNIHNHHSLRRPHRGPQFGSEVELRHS
Test: Radiometric ACE activity assay on rat kidney preparations
Assay type: biochemical, rat (Sprague-Dawley)
Conditions: 1 μM enalaprilat; substrate tritiated hippuryl-glycyl-glycine; compound- or vehicle-dosed rat kidney preparations

inhibition of radioactive product formation: Complete inhibition
SMILES: C[C@H](N[C@@H](CCc1ccccc1)C(=O)O)C(=O)N1CCC[C@H]1C(=O)O [enalaprilat]
